Source: patent publication US5683987A, “Therapeutic oligonucleotides targeting the human MDR1 and MRP genes” (The Board of Regents of the University of Nebraska, priority 1995, dated 1997)
Where “and” joins values, the source holds several entries; their conditions need not be identical. Equal values may be shown once. Read-outs that look alike come from different tables or passages of the source.

What was measured:
[1] = tested on: 8226/Dox human myeloma cells; assay: Sensitivity of 8226/Dox cells to Vincristine with increasing time after Vincristine exposure; format: cell-based; settings: for Relative Sensitization (fold increase) Day 5: Day 5 after Vincristine exposure; for Relative Sensitization (fold increase) Day 7: Day 7 after Vincristine exposure; for Relative Sensitization (fold increase) Day 9: Day 9 after Vincristine exposure
Experimental: As shown in this example, several oligos which target the MDR1 gene are able to sensitize multidrug-resistant cell lines to the cytotoxic effects of the chemotherapeutic agent Vincristine. […] The cells were then washed and seeded into 96-well plates (quadruplicate replicates) for pulsing with tritiated thymidine 3 days later. Cells were harvested the next day (=4th day after drug treatment). Tritiated thymidine uptake was analyzed by liquid scintillation.
As shown in this example, it was determined that there was an increase in sensitivity of multidrug-resistant 8226/Dox human myeloma cells to Vincristine with increasing time of incubation following initial exposure to Vincristine. The experimental conditions were identical to those utilized in obtaining the data shown in Table 7, except that the present experiment had two additional time points.

[2] = tested on: 8226/Dox human myeloma cells; assay: Sensitization of 8226/Dox cells to Vincristine by MDR-oligos in 5% oxygen; format: cell-based; settings: 5% oxygen; for IC50: Vincristine IC50 after 4 days with 10 μM oligo, read-out: IC50 dose; for Relative sensitization (fold increase): to Vincristine, 10 μM oligo
Experimental: (§1) As shown in this example, several oligos which target the MDR1 gene are able to sensitize multidrug-resistant cell lines to the cytotoxic effects of the chemotherapeutic agent Vincristine. Tumor cells were treated in vitro with 10 μM of the indicated oligo for 4 days at 37° C., then counted, dispensed into individual tubes, and pulsed with Vincristine at various doses (serial 5-fold dilutions) for 3 hrs. The cells were then washed and seeded into 96-well plates (quadruplicate replicates) for pulsing with tritiated thymidine 3 days later. Cells were harvested the next day (=4th day after drug treatment). Tritiated thymidine uptake was analyzed by liquid scintillation.

[3] = tested on: CEM/VLB10 human leukemia cells; assay: Sensitization of CEM/VLB10 cells to Vincristine by MDR-oligos in 5% oxygen; format: cell-based; settings: 5% oxygen; for IC50: Vincristine IC50 after 4 days with 10 μM oligo, read-out: IC50 dose; for Relative sensitization (fold increase): to Vincristine, 10 μM oligo
Experimental: as §1

[4] = tested on: A427 human non-small-cell lung adenocarcinoma cell line; assay: Sensitization of A427 lung cancer cells to etoposide by MRP-oligos; format: cell-based
Experimental: The human non-small-cell lung adenocarcinoma cell line A427 was treated with oligos at various concentrations for 4 days in vitro. The cells then were pulsed with various concentrations of etoposide (range 1.6×10^-4 to 1×10^-6 M) for 3 hrs. Next, cells were trypsinized and seeded by volume into 96-well plates with 12 replicates per treatment condition. Three days later, tritiated thymidine was added and the cells harvested the next day.

[5] = tested on: 8226/Dox cells; assay: Sensitization of 8226/Dox cells to VCR by MDR-aptameric oligonucleotides; format: cell-based, human; settings: compared to media control
[6] = tested on: 8226/Dox cells; assay: Sensitization of 8226/Dox cells to Vincristine by an MRP-oligo and MDR-ODNs; format: cell-based, human; settings: for IC50: Vincristine IC50 after oligo treatment, conditions as Example 2, read-out: IC50 dose; for Relative sensitization (fold increase): to Vincristine, vs medium only
Experimental: as §1
In this example, experimental conditions were identical to those utilized in obtaining the data in Example 2.

[7] = tested on: 8226/Dox4 human myeloma cells; assay: Vincristine IC50 summary after MDR-oligo treatment; format: cell-based; settings: oligo 0.2 μM; compared to media control
Experimental: (§2) In vitro testing of MDR-Oligonucleotides was done on the multidrug-resistant (MDR+) RPMI-8226/Dox4 human multiple myeloma cell line (gift of Dr. William Dalton, Univ. Arizona Cancer Ctr., Tucson). Cells were incubated in vitro for 4 days at 37° C. with MDR-oligos at 0.2 μM final concentration; pulsed 18 hr with serial 5-fold dilutions of chemotherapeutic drug (vincristine) from 1×10^-4 M to 2×10^-10 M. Cells were then washed, and incubated for an additional 4 days. Tritiated thymidine (^3 H-TdR) was added for last 18 hr to measure status of cellular proliferation. Controls included MDR^+ 8226 cells similarly treated with vincristine but pretreated either with (a) control ODNs, or (b) culture medium only.

[8] = tested on: 8226/Dox4 cells; assay: Parsimonious regression model estimates of count and Vincristine IC50; format: cell-based, human; settings: for Estimated Mean Count (cpm): 3H-TdR count at VCR Dose = 0, oligo alone, media only 159,500; for Fold Increase in drug sensitivity: compared to corresponding oligo control (no drug)
Experimental: as §2
The following mathematical/statistical model was used to analyze the effects of oligos and various drug treatments on targeted tumor cells in these studies. The model is based on experiments which generally involve treatment of tumor cells with one of several ODNs or media only, and with several dose levels of an anti-cancer agent (such as, for example, vincristine (VCR)) or media only. Analysis goals were to model the relationship of cell kill to the dose of VCR (for example), and to compare the effects of the various ODNs.
This final model contained 10 regressor variables.
Various estimates of parameters from the parsimonious model are shown in TABLE 13, which contains the model estimate of the count for each ODN with media only; differences here (when compared to "media only" [no ODN]) reflect the cell kill associated with the ODN alone. TABLE 13 also contains an estimate of IC50 values, the dose of vincristine (VCR) which is estimated to produce an expected count which is exactly half that expected with "media only" [no VCR]. While formal statistical comparisons of the IC50 values of the various ODNs is not possible, an ordering of the ODNs by estimated IC50 values is possible.

Molecule: 5(1)mdr: SEQ ID NO 10: CCCTACCTCGCGCTCCTTGGAACGGC (CCCTACCTCGCGCTCCTTGGAACGGC; chemistry not given here)
- Relative Sensitization (fold increase) Day 5 ([1]; oligo 2 μM): 3.4 fold increase
- Relative Sensitization (fold increase) Day 7 ([1]; oligo 2 μM): 26.9 fold increase
- Relative Sensitization (fold increase) Day 9 ([1]; oligo 2 μM): 724 fold increase
- Relative Sensitization (fold increase) Day 5 ([1]; oligo 10 μM): 2.1 fold increase
- Relative Sensitization (fold increase) Day 7 ([1]; oligo 10 μM): 20.5 fold increase
- Relative Sensitization (fold increase) Day 9 ([1]; oligo 10 μM): 423 fold increase
- IC50 [2]: 180 nM
- Relative sensitization (fold increase) [2]: 2.5 fold increase
- IC50 [3]: 90 nM
- Relative sensitization (fold increase) [3]: 111 fold increase

Molecule: 5(2)MRP: SEQ ID NO 43: CGGTGGCGCGGGCGGCGGCGGGCACC (CGGTGGCGCGGGCGGCGGCGGGCACC; chemistry not given here)
- Etoposide (VP-16) Relative Sensitization (fold increase) ([4]; oligo 10 μM): 6 fold increase

Molecule: 5(3)MRP: SEQ ID NO 42: CGGCGGCGGCGGCGCAGGGAGCCGGG (CGGCGGCGGCGGCGCAGGGAGCCGGG; chemistry not given here)
- Etoposide (VP-16) Relative Sensitization (fold increase) ([4]; oligo 10 μM): 5 fold increase

Molecule: COc1cc([C@@H]2c3cc4c(cc3[C@@H](O[C@@H]3O[C@@H]5CO[C@@H](C)O[C@H]5[C@H](O)[C@H]3O)[C@H]3COC(=O)[C@H]23)OCO4)cc(OC)c1O [Etoposide (VP-16), etoposide, reference compound]
- IC50 ([4]; Homo sapiens, A-427, read-out: Etoposide (VP-16) IC50, Media Control (no oligo)): 36000 nM
- IC50 ([4]; read-out: Etoposide (VP-16) IC50, Media Control (no oligo)): 50000 nM and 60000 nM

Molecule: CO[C@@H]1[C@@H](OC(N)=O)[C@@H](O)[C@H](Oc2ccc3c(O)c(NC(=O)c4ccc(O)c(CC=C(C)C)c4)c(=O)oc3c2C)OC1(C)C [Novobiocin, novobiocin, reference compound]
- Etoposide (VP-16) Relative Sensitization (fold increase) ([4]; novobiocin used at the same time as VP-16): 5.0 fold increase
- Etoposide (VP-16) Relative Sensitization (fold increase) ([4]; novobiocin used at the same time as VP-16, listed as novobiocin): about 5 fold increase

Molecule: MDR-APT-1: MDR-aptameric oligonucleotide, SEQ ID NO 88: CCCCTGGCGTTACCTCCTCGTTTCT (CCCCTGGCGTTACCTCCTCGTTTCT; chemistry not given here)
- Fold Increase in Drug Sensitization [5]: 40,000 fold

Molecule: OL(2)MRP: SEQ ID NO 49: CGGTGATGCT GTTCGTGCCC (CGGTGATGCTGTTCGTGCCC; chemistry not given here)
- Etoposide (VP-16) Relative Sensitization (fold increase) ([4]; oligo 10 μM): 2.4 fold increase

Molecule: OL(2)mdr: SEQ ID NO 35: GCAACCAGCA CCCCAGCACC (GCAACCAGCACCCCAGCACC; chemistry not given here)
- IC50 [3]: 160 nM
- Relative sensitization (fold increase) [3]: 62 fold increase
- IC50 [6]: 300 nM
- Relative sensitization (fold increase) [6]: 3.7 fold increase

Molecule: OL(3)MRP: SEQ ID NO 62, position 2848: CCCTGGACCG CTGACGCCCG (CCCTGGACCGCTGACGCCCG; chemistry not given here)
- Etoposide (VP-16) Relative Sensitization (fold increase) ([4]; oligo 10 μM): 5 fold increase

Molecule: OL(3)mdr: SEQ ID NO 37: TGCCCACCAG AGCCAGCGTC (TGCCCACCAGAGCCAGCGTC; chemistry not given here)
- IC50 [3]: 200 nM
- Relative sensitization (fold increase) [3]: 50 fold increase
- IC50 [6]: 100 nM
- Relative sensitization (fold increase) [6]: 11 fold increase

Molecule: OL(4)MRP: SEQ ID NO 76: CGATGCCGAC CTTTTCTCC (CGATGCCGACCTTTTCTCC; chemistry not given here)
- Etoposide (VP-16) Relative Sensitization (fold increase) ([4]; oligo 1 μM): 3 fold increase

Molecule: OL(5)MRP: SEQ ID NO 48: CTGCGGCCCG GAAAACATCA (CTGCGGCCCGGAAAACATCA; chemistry not given here)
- Etoposide (VP-16) Relative Sensitization (fold increase) ([4]; oligo 10 μM): 6 fold increase

Molecule: OL(5)mdr: SEQ ID NO 21: TCTGGACTTT GCCCGCCGCC (TCTGGACTTTGCCCGCCGCC; chemistry not given here)
- IC50 [3]: 150 nM
- Relative sensitization (fold increase) [3]: 67 fold increase

Molecule: OL(6)MRP: SEQ ID NO 60: GGGCCAGGCT CACGCGCTGC (GGGCCAGGCTCACGCGCTGC; chemistry not given here)
- Etoposide (VP-16) Relative Sensitization (fold increase) ([4]; oligo 10 μM): 8 fold increase

Molecule: OL(6A)mdr: SEQ ID NO 2: GTGCTCAGCC CACGCCCCGG (GTGCTCAGCCCACGCCCCGG; chemistry not given here)
- IC50 [6]: 88 nM
- Relative sensitization (fold increase) [6]: 12.5 fold increase

Molecule: OL(10)mdr: SEQ ID NO 11: GCTCCCAGCT TTGCGTGCCC (GCTCCCAGCTTTGCGTGCCC; chemistry not given here)
- Fold-Increase in sensitivity to drug treatment [7]: 40 fold

Molecule: OL(12)mdr: SEQ ID NO 12: GCGCGCTCCG GGCAACATGG (GCGCGCTCCGGGCAACATGG; chemistry not given here)
- Estimated Mean Count (cpm) [8]: 159,500 cpm
- Fold Increase in drug sensitivity [8]: 233 fold
- Fold-Increase in sensitivity to drug treatment [7]: 200 fold

Molecule: OL(12A)mdr: SEQ ID NO 13: CGCGCTCCGGGCAACATGGTCC (CGCGCTCCGGGCAACATGGTCC; chemistry not given here)
- Estimated Mean Count (cpm) [8]: 159,500 cpm
- Fold Increase in drug sensitivity [8]: 414 fold
- Fold-Increase in sensitivity to drug treatment [7]: 375 fold

Molecule: OL(12B)mdr: SEQ ID NO 14: CGCGCTCCGG GCAACATG (CGCGCTCCGGGCAACATG; chemistry not given here)
- Estimated Mean Count (cpm) [8]: 159,500 cpm
- Fold Increase in drug sensitivity [8]: 17.3 fold
- Fold-Increase in sensitivity to drug treatment [7]: 40 fold

Molecule: OL(14)MRP: SEQ ID NO 44: GCGGGTCGGA GCCATCGGCG (GCGGGTCGGAGCCATCGGCG; chemistry not given here)
- Etoposide (VP-16) Relative Sensitization (fold increase) ([4]; oligo 10 μM): 3 fold increase

Molecule: PA(1)mdr: SEQ ID NO 40: GCGGGAGGTGAGTCACTGTCTCC (GCGGGAGGTGAGTCACTGTCTCC; chemistry not given here)
- Relative Sensitization (fold increase) Day 5 ([1]; oligo 2 μM): 2.3 fold increase
- Relative Sensitization (fold increase) Day 7 ([1]; oligo 2 μM): 27 fold increase
- Relative Sensitization (fold increase) Day 9 ([1]; oligo 2 μM): 1309 fold increase
- Relative Sensitization (fold increase) Day 5 ([1]; oligo 10 μM): 6.3 fold increase
- Relative Sensitization (fold increase) Day 7 ([1]; oligo 10 μM): 28 fold increase
- Relative Sensitization (fold increase) Day 9 ([1]; oligo 10 μM): 550 fold increase
- IC50 [2]: 28 nM
- Relative sensitization (fold increase) [2]: 16 fold increase
- IC50 [3]: 190 nM
- Relative sensitization (fold increase) [3]: 53 fold increase

Molecule: SJ(34)mdr: SEQ ID NO 5: TCGAATGAGC TCAGGCTTCC (TCGAATGAGCTCAGGCTTCC; chemistry not given here)
- Fold-Increase in sensitivity to drug treatment [7]: 293 fold

Molecule: SJ(34A)mdr: SEQ ID NO 6: TCGAATGAGC TCAGGCTT (TCGAATGAGCTCAGGCTT; chemistry not given here)
- Estimated Mean Count (cpm) [8]: 100,300 cpm
- Fold Increase in drug sensitivity [8]: 188 fold
- Fold-Increase in sensitivity to drug treatment [7]: > 7500 fold

Molecule: SJ(34C)mdr: SEQ ID NO 8: AGCTCAGGCT TCCTGTGGCA (AGCTCAGGCTTCCTGTGGCA; chemistry not given here)
- Fold-Increase in sensitivity to drug treatment [7]: 2182 fold

Molecule: SJ(36)mdr: SEQ ID NO 39: CCAGGGCTTCTTGGACAACCTA (CCAGGGCTTCTTGGACAACCTA; chemistry not given here)
- IC50 [3]: 160 nM
- Relative sensitization (fold increase) [3]: 62 fold increase
